Each structure is given as a SMILES string. Entries after “also recorded” stand apart in the source; their conditions may differ.

Series [1] is described as follows: Solubility of Levodopa in HCl and after raising the pH with glucose. In kind it is physicochemical. The method, then: Levodopa can be dissolved in HCl up to 100 mg/mL without any precipitation. To raise the pH with glucose in a way according to the invention and still get a stabile solution, it is possible to obtain 10 mg/mL Levodopa, and with 2 mg/mL Carbidopa addition 20 mg/mL Levodopa. A precipitate appears at 30 mg/mL Levodopa in the presence of 3 mg/mL Carbidopa. The steps of producing the solutions of the invention are made rather quickly up to the addition of glucose.

In a further series the test system is patient. The series is described as follows: Subcutaneous continuous infusion of Levodopa in a patient. In kind it is in vivo, human.
The conditions of series [2]: dissolved in HCl and diluted with glucose, Levodopa only active ingredient; cited from earlier work.
For series [3] the following is noted: cited from earlier work.
Another series concerns PD patients. The series is described as follows: Continuous intravenous infusion of Levodopa in PD patients. In kind it is in vivo, human. The method, then:
Continuous infusion of Levodopa has been given to PD patients during 12 hours a day for 10 days. The daily dosage of Levodopa was 608 mg and the infusion rate was 51 mg/h. Fifty % of the patients received traditional oral administration of Carbidopa and 50% received Benserazide.

Regarding `N[C@@H](Cc1ccc(O)c(O)c1)C(=O)O` [Levodopa, 3-(3,4-dihydroxiphenyl)-L-alanine], the “Levodopa concentration dissolved without any precipitation” value in series [1] (in HCl) is listed as “up to 100 mg/mL”. The “Levodopa concentration at which a precipitate appears” value in series [1] (in the presence of 3 mg/mL Carbidopa) turned out to be 30 mg/mL. In addition, the “Levodopa concentration obtainable as stabile solution” value in series [1] (pH raised with glucose according to the invention, no Carbidopa) is 10 mg/mL. Also, in series [1] (pH raised with glucose, with 2 mg/mL Carbidopa addition), the “Levodopa concentration obtainable as stabile solution” value is given as 20 mg/mL. For the same compound, the “Levodopa blood concentrations during the day” value with patient (same patient, one day of continuous intravenous infusion) is reported as “some fluctuations of the Levodopa blood concentrations occurred”. Moreover, in the series with patient (subcutaneous infusion), the clinical effect entry is “positive clinical effect; also recorded: good clinical effect” and the “distribution of Levodopa to the blood” value is on record as “fast distribution of Levodopa to the blood with measurable concentrations”. Further, the “dose dependence of response” value with patient (subcutaneous infusions, one patient) is recorded as “responded in a dose dependant manner”. Moreover, in series [2], the “Levodopa concentration above which Levodopa precipitates” value was over 5 mg/mL. For the same compound, the “delay in concentration levels between plasma and CNS” value in series [3] (in vivo) is “about 90 minutes”. Besides, the “fraction of the total dose that enters the blood circulation” value in series [3] (oral administration) is “approximately 10%”. Also, the “follow-up time at which the long-term effect was stable” value in the series with PD patients (after the concluded infusion) is on record as 6-10 months. The “clinical fluctuations (dyskinesia and bradykinesia)” value with PD patients (intravenous, 12 hours a day for 10 days, 608 mg daily, seventeen patients, preliminary) was “both bradykinesia and above all dyskinesia decline; also recorded: pronounced decrease in clinical fluctuations”. In addition, in the series with PD patients (intravenous, 12 hours for 10 days), the “duration of the long-lasting effect” value is “at least 5 months”. The “dyskinesia during infusion treatment, single case” value in the series with PD patients (person, PD for 20 years) is on record as “dyskinesia disappeared almost completely”. Also, the “therapeutic interval from analysis of Levodopa in plasma” value in the series with PD patients (plasma, not uniform in the material) is given as “widening of the therapeutic interval”. In the series on PD patients (seventeen patients, after intravenous infusion treatment), the “required oral Levodopa dosage, post-treatment (mean)” value is given as 773 mg/day. Further, in the series on PD patients (seventeen patients, before intravenous infusion treatment), the “required oral Levodopa dosage, pre-treatment (mean)” value is listed as 1003 mg/day.

(Values after patent US8735382B2, “Infusion and injection solution of levodopa” (Dizlin Medical Design AB, priority 2004, dated 2014).)
